From patent publication US11643405B2, “Compound for treatment or prevention of liver diseases” (JIANGSU ATOM BIOSCIENCE AND PHARMACEUTICAL CO., LTD., priority 2018, dated 2023)
In brackets after ≈: the same amount, converted by molar mass. Where two headings read alike, the source gives them in different places.

How the values were obtained:
[1] = tested on: NASH mice; assay: Efficacy on non-alcoholic steatohepatitis (NASH) mice fed high-fat feed; assay type: in vivo, C57BL/6 mice; settings: for Liver coefficient (liver weight/body weight) / Liver weight: 28 days; for Liver weight: X ± SD
Procedure: The test compounds were 4 and 7, respectively; the positive control silymarin was purchased from Shanghai Dibai Biotechnology Co., Ltd., with the batch number HH06.
Low-dose group (35 mg/kg) solution preparation: the quantitative test compound was precisely weighed and a certain amount of normal saline was added to prepare the oral suspension solution with the concentration of 3.5 mg/mL. The administration volume was 10 mL/kg.
High-dose group (70 mg/kg) solution preparation: the quantitative test compound was precisely weighed and a certain amount of normal saline was added to prepare the oral suspension solution with the concentration of 7.0 mg/mL. The administration volume was 10 mL/kg.
High-fat feed: basic feed ingredients were corn, flour, imported fish meal, soybean meal, secondary meal, yeast meal, soybean oil, etc. The high-fat feed was prepared from 73.6% basic feed with 10% lard, 10% egg yolk powder, 5% sucrose, 1.2% cholesterol and 0.2% pig bile salt.
Source, species, strain: C57BL/6 mice, provided by Beijing Vital River Laboratory Animal Technology Co., Ltd. Nanjing Branch (experimental animal production license: SCXK (Su) 2016-0003); experimental animal use license: SYXK (Jun) 2012-0049; age: 6-8 weeks at the beginning of dosing; weight: 18-22 g; gender: half male and half female.
After 3 days of adaptive feeding with normal feed, the mice were randomly assigned according to body weight: 8 mice were fed with normal feed and set as normal control (NC); the rest of mice were fed with high-fat feed until the end of the experiment. The mice were weighed and recorded every 3 days. After feeding with high-fat diet for 56 days (8 weeks), blood samples were collected from the orbital vein of mice to detect the blood biochemical indexes to identify whether the modelling was successful.
After successful modeling, the mice in the high-fat feed group were randomly divided into 6 groups with 8 animals in each group, including model group, compound 4 low dose group, compound 4 high dose group, compound 7 low dose group, compound 7 high dose group and silymarin high-dose group. The mice in each group were administered intragastrically according to the animal's body weight every day for 28 consecutive days (4 weeks). At the same time, during the administration period, the mice in each administration group and model group continued to be fed with high-fat feed until the end of the experiment. The normal control group was administered the corresponding volume of normal saline.
On the last day of the experiment, the mice in each group were fasted for 8 hours, blood was taken from the orbit and the serum was separated and then stored at −20° C. After blood collection, the mice were sacrificed and the liver was quickly separated, weighed and stored in a refrigerator at −80° C. Serum samples and liver tissue samples were subjected to determinations of serum triglyceride (TG), serum total cholesterol (TC), serum high-density lipoprotein (HDL-C), serum low-density lipoprotein (LDL-C), serum alanine aminotransferase (ALT), serum aspartate aminotransferase (AST), serum tumor necrosis factor alpha (TNFα), liver triglycerides (TG), liver total cholesterol (TC), liver malondialdehyde (MDA), liver superoxide dismutase (SOD); in addition, some livers of mice in the blank control group, model group, compound 7 low-dose group and silymarin high-dose group were fixed in neutral formaldehyde fixed solution and then HE staining was performed to analyzed the pathological changes of liver tissue.

[2] = Determination of compound solubility in PBS buffer (LC-MS/MS); assay type: physicochemical; settings: for solubility at 2 h: PBS buffer, aqueous buffer, kinetic from dmso stock, stirred 2 hours, read-out: Solubility
Procedure: The test compounds were 7, 67 and 85, respectively; the control compound was silymarin, purchased from Shanghai Dibai Biotechnology Co., Ltd., with the batch number HH06. Both the test compounds and the control compound were prepared into 10 mM stock solutions using DMSO. Phosphate buffered saline (PBS), with pH of 4.0 and 7.4, was used to test the solubility of the test compounds.
Treatment of test compound and control compound: 30 μL of test compound or control compound stock solution (10 mM) per well was added in a specially made solubility sample plate, and then 970 μL of PBS with different pH was added to each well (pH was 4.0 and 7.4, respectively). Repeated wells were set in the test. A stir bar was added to each well that was covered with a polytetrafluoroethylene or silica gel plug. Stirring was performed at 25° C. at 1100 rpm for 2 hours. 10 μL of sample was taken from each well, and then 990 μL of water and acetonitrile mixture (including internal standard substance) was added to mix well, followed by filtering with a filter plate.
Standard treatment: 10 mM stock solution was diluted with DMSO to 300 μM, then 10 μL of compound diluent was taken, and 990 μL of water and acetonitrile mixture (including internal standard substance) was added to mix well and formulated into a standard solution with the final concentration 3 μM.
The solubility sample plate was placed in the autosampler and the LC-MS/MS method was used for analysis. The concentration of the test compound was calculated by the response value of the test compound and standard, and the concentration of the standard.

[3] = in vivo; settings: both sexes, ICR, mouse, po
Procedure: The test compound was compound 7; the positive control silymarin was purchased from Shanghai Dibai Biotechnology Co., Ltd., with the batch number HH06. Immediately before use, the suspension was prepared with normal saline and ultrasound to prepare a suspension with a corresponding concentration.
Low-dose group (1.5 g/kg) solution preparation: the quantitative test compound 7 or positive control compound was precisely weighed, and a certain amount of normal saline was added to prepare the oral suspension solution with the concentration of 75 mg/mL. The administration volume was 20 mL/kg.
High-dose group (3.0 g/kg) solution preparation: the quantitative test compound 7 or positive control compound was precisely weighed, and a certain amount of normal saline was added to prepare the oral suspension solution with the concentration of 150 mg/mL. The administration volume was 20 mL/kg.
ICR mice, SPF grade, weight: 16-18 g, 6-8 weeks old. Provided by Nantong University, laboratory animal production license number: SCXK (Su) 2014-0001; laboratory animal use license: SYXK (Su) 2017-0007.
16 ICR mice were randomly divided into compound 7 low-dose group, compound 7 high-dose group, silymarin low-dose group and silymarin high-dose group, with 4 mice in each group, half male and half female. […]

In the case of `COc1cc(C2Oc3cc(C4Oc5cc(O)cc(O)c5CC4O)cc(O)c3OC2CO)ccc1O` (centres unmarked) [Compound 7, 2-{8-hydroxy-3-(4-hydroxy-3-methoxyphenyl)-2-hydroxymethyl-2,3-dihydrobenzo[b][1,4]dioxan-6-yl}chroman-3,5,7-triol], the TG ([1]; 35 mg/kg/day) is reported as 1.22 ± 0.06 mmol/L, the “Liver coefficient (liver weight/body weight)” value ([1]; 35 mg/kg/day intragastric) is reported as 4.53 ± 0.38 % and the Liver weight ([1]; 35 mg/kg/day intragastric) is reported as 1.40 ± 0.05 g. The TG ([1]; 70 mg/kg/day) was 1.25 ± 0.06 mmol/L, the “Liver coefficient (liver weight/body weight)” value ([1]; 70 mg/kg/day intragastric) was 4.51 ± 0.28 % and the Liver weight ([1]; 70 mg/kg/day intragastric) was 1.41 ± 0.02 g. The “Therapeutic effect on non-alcoholic steatohepatitis in mice (in words)” value ([1]; 35 and 70 mg/kg) was “significant therapeutic effects”, the MDA ([1]; liver, 35 mg/kg/day) was 2.84 ± 0.24 nmol/mg and the SOD ([1]; liver, 35 mg/kg/day) was 18.54 ± 4.41 U/mg. It also gave a TC ([1]; liver, 35 mg/kg/day) of 1.53 ± 0.06 mmol/L, an MDA ([1]; liver, 70 mg/kg/day) of 2.79 ± 0.21 nmol/mg and an SOD ([1]; liver, 70 mg/kg/day) of 19.44 ± 3.11 U/mg. The TC ([1]; liver, 70 mg/kg/day) was 1.54 ± 0.09 mmol/L, the “Liver histopathology (HE staining)” value ([1]; low-dose group (35 mg/kg)) was “no lipid droplet vacuoles caused by steatosis” and the ALT ([1]; serum, 35 mg/kg/day) was 63.03 ± 30.59 U/L. The AST ([1]; serum, 35 mg/kg/day) was 115.16 ± 13.42 U/L, the HDL-C ([1]; serum, 35 mg/kg/day) was 0.83 ± 0.35 mmol/L and the LDL-C ([1]; serum, 35 mg/kg/day) was 1.95 ± 0.50 mmol/L. The TC ([1]; serum, 35 mg/kg/day) was 2.59 ± 0.38 mmol/L, the TG ([1]; serum, 35 mg/kg/day) was 1.13 ± 0.06 mmol/L and the TNF-α ([1]; serum, 35 mg/kg/day) was 414.26 ± 11.57 ng/L. It also gave an ALT ([1]; serum, 70 mg/kg/day) of 75.75 ± 27.48 U/L, an AST ([1]; serum, 70 mg/kg/day) of 123.61 ± 5.41 U/L and an HDL-C ([1]; serum, 70 mg/kg/day) of 0.89 ± 0.46 mmol/L. The LDL-C ([1]; serum, 70 mg/kg/day) was 1.85 ± 0.37 mmol/L, the TC ([1]; serum, 70 mg/kg/day) was 2.63 ± 0.81 mmol/L and the TG ([1]; serum, 70 mg/kg/day) was 1.11 ± 0.07 mmol/L. It also gave a TNF-α ([1]; serum, 70 mg/kg/day) of 425.80 ± 9.77 ng/L, a solubility at 2 h ([2]; PBS pH = 4.0, 25° C.) of 209 µM (≈ 101 µg/mL) and a solubility at 2 h ([2]; PBS pH = 7.4, 25° C.) of 214 µM (≈ 104 µg/mL). For the same molecule, the “Solubility in PBS buffer solution compared with silymarin (in words)” value ([2]; pH 4.0 and 7.4) was “significantly higher than that of silymarin” and the MTD at 14 days [3] was 3000 mg/kg.
